The target in assay [1] is T1, angiotensin converting enzyme (Rattus norvegicus, UniProt P47820).
T1 construct: from tissue; host or cells: whole animal: male, normotensive rats
T1 sequence (P47820 36-1313): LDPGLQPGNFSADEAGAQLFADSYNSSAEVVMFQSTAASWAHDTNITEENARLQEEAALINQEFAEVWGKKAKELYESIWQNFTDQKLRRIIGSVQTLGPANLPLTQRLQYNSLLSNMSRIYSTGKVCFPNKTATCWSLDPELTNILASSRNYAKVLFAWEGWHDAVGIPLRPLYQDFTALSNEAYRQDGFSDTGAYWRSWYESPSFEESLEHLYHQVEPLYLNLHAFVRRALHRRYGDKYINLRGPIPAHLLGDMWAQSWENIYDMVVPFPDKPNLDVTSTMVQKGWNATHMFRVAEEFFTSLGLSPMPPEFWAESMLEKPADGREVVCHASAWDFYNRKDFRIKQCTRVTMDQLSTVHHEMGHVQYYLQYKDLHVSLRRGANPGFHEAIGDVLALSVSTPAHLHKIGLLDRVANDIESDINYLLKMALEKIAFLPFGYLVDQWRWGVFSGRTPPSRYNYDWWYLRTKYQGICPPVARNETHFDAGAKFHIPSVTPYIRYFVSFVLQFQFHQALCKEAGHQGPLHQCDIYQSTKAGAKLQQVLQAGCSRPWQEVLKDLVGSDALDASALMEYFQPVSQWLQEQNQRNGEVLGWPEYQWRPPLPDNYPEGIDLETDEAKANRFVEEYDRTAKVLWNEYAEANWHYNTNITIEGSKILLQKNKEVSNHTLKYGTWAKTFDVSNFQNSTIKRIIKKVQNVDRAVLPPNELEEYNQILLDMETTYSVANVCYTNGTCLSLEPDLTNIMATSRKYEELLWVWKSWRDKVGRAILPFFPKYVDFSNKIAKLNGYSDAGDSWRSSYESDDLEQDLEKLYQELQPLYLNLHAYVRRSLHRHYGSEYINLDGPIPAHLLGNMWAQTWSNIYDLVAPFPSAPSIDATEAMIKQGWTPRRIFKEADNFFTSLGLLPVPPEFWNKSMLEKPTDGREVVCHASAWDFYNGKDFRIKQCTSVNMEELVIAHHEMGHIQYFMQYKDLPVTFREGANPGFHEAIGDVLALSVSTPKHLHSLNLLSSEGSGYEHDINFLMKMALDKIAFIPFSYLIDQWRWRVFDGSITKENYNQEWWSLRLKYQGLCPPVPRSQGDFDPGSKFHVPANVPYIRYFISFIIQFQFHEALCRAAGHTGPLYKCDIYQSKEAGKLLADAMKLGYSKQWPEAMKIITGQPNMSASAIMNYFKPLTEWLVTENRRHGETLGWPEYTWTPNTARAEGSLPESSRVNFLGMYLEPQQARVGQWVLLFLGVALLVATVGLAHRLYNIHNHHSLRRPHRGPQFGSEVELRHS
As to the kind of experiment: Inhibition of angiotensin I induced pressor response in normotensive rats. To be noted: 10 mg/Kg i.v., male normotensive anesthetized rats, 300 ng/kg angiotensin I i.v. challenge. Type of assay: in vivo. The protocol: The in vivo test for intravenously administered compounds is performed with male, normotensive rats, which are anesthetized with sodium metofan. A femoral artery and femoral vein are cannulated respectively for direct blood pressure measurement on i.v. administration of angiotensin I and i.v. or p.o. administration of a compound of this invention. After the basal blood pressure is stabilized, pressor responses to 3 challenges of 300 ng/kg angiotensin I i.v., at 15 minute intervals, are obtained. Such pressure responses are usually again obtained at 15, 30, 60 and 90 minutes, and then every hour up to 6 hours after i.v. or p.o. administration of the compound to be tested, and compared with the initial responses. Any observed decrease of said pressor response is an indication of Angiotensin I converting enzyme inhibition.

Assay [2] has as its target T2, neutral endopeptidase (NEP, EC 3.4.24.11) (Rattus norvegicus, UniProt P07861).
T2 construct: 4.2 μg of protein (rat kidney cortex membranes prepared by method of Maeda et at, 1983); from tissue; host or cells: rat kidney cortex membranes
T2 sequence (P07861 1-750): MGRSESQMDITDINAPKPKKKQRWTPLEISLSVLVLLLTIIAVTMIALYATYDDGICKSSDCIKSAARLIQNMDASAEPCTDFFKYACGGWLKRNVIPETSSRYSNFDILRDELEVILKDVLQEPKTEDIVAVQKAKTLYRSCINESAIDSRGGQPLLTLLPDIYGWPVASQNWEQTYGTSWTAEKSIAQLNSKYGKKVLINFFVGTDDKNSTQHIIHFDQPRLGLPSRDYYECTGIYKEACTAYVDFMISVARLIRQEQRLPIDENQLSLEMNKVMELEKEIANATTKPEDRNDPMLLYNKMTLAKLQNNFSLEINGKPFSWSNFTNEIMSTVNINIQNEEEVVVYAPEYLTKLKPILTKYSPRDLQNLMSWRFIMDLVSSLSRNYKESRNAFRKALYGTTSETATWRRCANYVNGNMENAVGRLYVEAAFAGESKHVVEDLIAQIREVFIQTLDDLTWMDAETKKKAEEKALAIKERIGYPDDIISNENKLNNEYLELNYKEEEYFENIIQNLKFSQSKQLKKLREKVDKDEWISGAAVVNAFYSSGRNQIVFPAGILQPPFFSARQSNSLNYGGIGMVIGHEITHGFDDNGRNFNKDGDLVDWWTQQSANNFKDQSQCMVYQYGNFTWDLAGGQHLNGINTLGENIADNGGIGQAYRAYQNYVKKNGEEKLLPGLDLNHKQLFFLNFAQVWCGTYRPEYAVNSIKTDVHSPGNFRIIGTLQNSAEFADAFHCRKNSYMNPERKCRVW
The experiment in a line: GAAP in vitro assay of neutral endopeptidase (rat kidney cortex membranes). To be noted: substrate glutaryl-Ala-Ala-Phe-2-naphthylamide 500 μM, pH 7.4 at 25° C. Type of assay: biochemical. The protocol: In vitro testing is most appropriate for the free carboxylic acids of the invention. The test compound is dissolved in dimethyl sulfoxide, ethanol, or 0.25M sodium bicarbonate solution, and the solution is diluted with buffer to the desired concentration.
The in vitro inhibition of neutral endopeptidase (NEP, EC 3.4.24.11) can be determined as follows:
Neutral endopeptidase 3.4.24.11 activity is determined by the hydrolysis of the substrate glutaryl-Ala-Ala-Phe-2-naphthylamide (GAAP) using a modified procedure of Orlowski and Wilk (1981). The incubation mixture (total volume 125 μl) contains 4.2 μg of protein (rat kidney cortex membranes prepared by method of Maeda et at, 1983), 50 mM tris buffer, pH 7.4 at 25° C., 500 μM substrate (final concentration), and leucine aminopeptidase M (2.5 μg). The mixture is incubated for 10 minutes at 25° C. and 100 μl of fast garnet (250 μg fast garnet/ml of 10% Tween 20 in 1M sodium acetate, pH 4.2) is added. Enzyme activity is measured spectrophotometrically at 540 nm. One unit of NEP 24.11 activity is defined as 1 nmol of 2-naphthylamine released per minute at 25° C. at pH 7.4. IC50 values are determined, i.e. the concentration of test compound required for 50% inhibition of the release of 2-naphthylamine.

One compound from patent publication US5508266A, “Gem-disubstituted amino acid derivatives” (Ciba-Geigy Corporation, priority 1994, dated 1996) can be followed below.

Molecules are shown by their SMILES.

Usually IC50 stands for the point on the concentration scale where inhibition reaches its midpoint. The low end stands for higher potency, the high end for lower potency. Consider `CC(C)[C@H](S)C(=O)NC(C)(C)C(=O)N[C@@H](Cc1ccc(O)cc1)C(=O)O` [Example 2, N-[2-(2(S)-mercapto-3-methyl-1-oxobutylamino)-2-methyl-1-oxopropyl]-L-tyrosine], for which the “duration of inhibition of the Angiotensin I induced pressor response” value in assay [1] was determined as 6 h. In assay [2], this compound came in with an IC50 of around 9.2 nM.
